From patent publication US20250325563A1, “METHODS FOR TREATING METABOLIC SYNDROME” (priority 2023, published 2025)

Legend:
[1] = Body weight of mice on daily i.p. administration for 6 days (Example 1); assay type: in vivo, C57BL/6J mice; conditions: for Mean body weight: N=10
Protocol: Two months old male C57BL/6J mice were housed (4-5 mice per cage) with food and water available ad libidum at a temperature control of 24-26° C. and a 12 h light/dark cycle. 3-4 days before the start of the study, the mice were randomized into 3 experimental groups (N=10 per group) using online randomization tool (Graph Pad, USA). Body weights of each animal were measured once a day during the entire study, their health conditions were assessed at the same time. Elocalcitol (100 μg/kg), vitamin D3 (cholecalciferol,100 μg/kg), or vehicle control were administrated intraperitoneally once a day for 6 days.

[2] = test system: HFD-fed mice; assay: Prevention of total body weight gain in high-fat diet mice (Example 2); assay type: in vivo, C57BL/6J mice
Protocol: Mice were group-housed (4-5 mice per cage) on a proper temperature control of 24-26° C. with a 12 h light/dark cycle with food and water available ad libidum. […] Body weight was measured once a week and the amount of food and water consumed by the animals was measured once a month.

[3] = test system: HFD-fed mice; assay: Visceral and subcutaneous fat volumes by MRI (Example 3); assay type: in vivo, C57BL/6J mice; conditions: 15 μg/kg i.p. twice a week for 16 weeks, n=5
Protocol: (§1) Mice were group-housed (4-5 mice per cage) on a proper temperature control of 24-26° C. with a 12 h light/dark cycle with food and water available ad libidum.
Abdominal area of animals was scanned for assessing visceral and subcutaneous fat loading by using magnetic resonance imaging system (MRI, Bruker BioSpin Group, Bruker Corporations, Germany) before experiment and then once a month during the experiment. The study procedure was conducted as follows: mice (n=5 per group) were anesthetized using isoflurane (1.5-2.5% in 1.5 l/min medical oxygen) and placed on a heated animal bed throughout the MRI procedure. Scans were performed using a 9.4T Bruker BioSpec 94/21 USR system connected to a 1H circular polarized transceiver coil and running Para Vision 6.0.1® software (Bruker BioSpin Group, Bruker Corporation, Germany). Respiration was monitored using a respiration pillow (SA Instruments Inc., Stony Brook, USA) and respiration rate was maintained at between 35-70 breaths per minute. Two orientation pilot scans were performed in order to establish the position of the animal and identify anatomical landmarks relevant for planning the subsequent scan. The final Tl-weighted Bruker: RARE sequence was performed using the following parameters: repetition time (TR) 1164 ms, echo time (TE) 6 ms, flip angle 90 degrees, number of averages 2, imaging matrix 320×320×40, spatial resolution 0.125×0.125×0.5 mm. Volumes were segmented manually by an observer blinded to the experiment using ITK-SNAP (V3.8.0). A 40× zoom was used to measure visceral and subcutaneous fat volume, and renal onset was the starting point for the fat volume analysis.

[4] = test system: HFD-fed mice; assay type: in vivo, C57BL/6J mice; conditions: 15 μg/kg i.p. twice a week for 16 weeks; for Epididymal fat, absolute organ weight / Epididymal fat, normalized organ weight (organ weight/body weight) / Liver, absolute organ weight / Liver, normalized organ weight (organ weight/body weight): mean ± SEM, n=10
Protocol: as §1

[5] = test system: HFD-fed mice; assay: Glucose tolerance test (GTT); assay type: in vivo, C57BL/6J mice; conditions: glucose 2 g/kg i.p.; study week 16; 15 μg/kg i.p. twice a week
Protocol: as §1
For GTT, mice were fasted overnight for 10-12 h and blood glucose was measured from the tail blood using Accu-Chek Performa system glucose meter (Roche, Germany) and the baseline glucose values (0 min) were recorded. The animals were then injected intraperitoneally with glucose (2 g/kg) and after glucose injection the blood glucose was measured from tail blood according to this schedule: 15, 30, 60, 90, and 120 min.

[6] = test system: HFD-fed mice; assay: Insulin tolerance test (ITT); assay type: in vivo, C57BL/6J mice; conditions: insulin 0,5 U/kg i.p.; study week 16; 15 μg/kg i.p. twice a week
Protocol: as §1
Insulin tolerance test (ITT) was performed at the end of the study (study week 16). For ITT, mice were fasted for 6 h and blood glucose was measured from the tail blood using Accu-Chek Performa system glucose meter (Roche, Germany) and the baseline glucose values (0 min) were recorded. The animals were then injected intraperitoneally with insulin (0,5 U/kg; diluted from 100 U/ml (Novorapid, Novo Nordisk A/S) with saline 0.9%) and after […] the blood glucose was measured from tail blood according to this schedule: 15, 30, 60, 90, and 120 min.

[7] = test system: HFD-fed mice; assay: Blood metabolic markers in serum (Example 5); assay type: in vivo, C57BL/6J mice; conditions: for HDL in serum / LDL in serum / Total cholesterol in serum / Triglycerides in serum: 15 μg/kg i.p. twice a week, study week 16
Protocol: as §1
The mice were deeply anesthetized with a terminal dosage of phenobarbital (200-300 mg/kg)24 h after the last study treatment administration and the blood samples were collected from all groups of mice via cardiac puncture using a standardized protocol. Collected blood was allowed to coagulate before centrifugation at 2000×g for 20 min after which the serum was stored at −80° C. until the analysis.

[8] = prolonged use; cited from earlier work
[9] = test system: NF-κB; conditions: Penna et al., 2009; cited from earlier work
[10] = 100 μg/kg i.p. once a day for 6 days
[11] = admin. day 0 (administration start), 100 μg/kg i.p. once a day
[12] = admin. day 1, 100 μg/kg i.p. once a day
[13] = admin. day 2, 100 μg/kg i.p. once a day
[14] = admin. day 3, 100 μg/kg i.p. once a day
[15] = admin. day 4, 100 μg/kg i.p. once a day
[16] = admin. day 5, 100 μg/kg i.p. once a day
[17] = admin. day 6, 100 μg/kg i.p. once a day
[18] = admin. day −1, before administration start, 100 μg/kg group
[19] = admin. day −2, before administration start, 100 μg/kg group
[20] = admin. day −3, before administration start, 100 μg/kg group
[21] = admin. day −4, before administration start, 100 μg/kg group
[22] = day 7, after administration stopped on day 6
[23] = day 7, after administration stopped on day 6, 100 μg/kg i.p.
[24] = day 8, after administration stopped on day 6
[25] = day 8, after administration stopped on day 6, 100 μg/kg i.p.
[26] = 15 μg/kg i.p. twice a week for 16 weeks

## C=C1/C(=C\C=C2/CCC[C@]3(C)C([C@@H](C)C/C=C/C(O)(CC)CC)=CC[C@@H]23)C[C@@H](O)C[C@@H]1F [elocalcitol]
[1]; [10]
  Average body weight after administration was stopped on Day 6: returned to normal within two days
[1]; [11]
  Mean body weight: 21.50 g
[1]; [12]
  Weight change %: +1.4%
  Mean body weight: 21.80 g
[1]; [13]
  Weight change %: −1.4%
  Mean body weight: 21.20 g
[1]; [14]
  Weight change %: −5.58%
  Mean body weight: 20.30 g
[1]; [15]
  Weight change %: −10.7%
  Mean body weight: 19.20 g
[1]; [16]
  Weight change %: −14.42%
  Mean body weight: 18.40 g
[1]; [17]
  Weight change %: −18.6%
  Mean body weight: 17.50 g
[1]; [18]
  Mean body weight: 21.60 g
[1]; [19]
  Mean body weight: 21.70 g
[1]; [20]
  Mean body weight: 21.60 g
[1]; [21]
  Mean body weight: 21.40 g
[1]; by treatment Day 4, 100 μg/kg i.p. once a day
  Drop of average body weight: 10.7%
[1]; by treatment Day 6, 100 μg/kg i.p. once a day
  Average decrease in body weight: 18.6%
[1]; [22]
  Weight change %: −16.75%
[1]; [23]
  Mean body weight: 17.90 g
[1]; [24]
  Weight change %: −1.07%
[1]; [25]
  Mean body weight: 19.20 g
[2]; 15 μg/kg i.p. twice a week
  Study week at which inhibition of the HFD-induced weight gain reaches statistical significance: 7 study week
[2]; 15 μg/kg i.p. twice a week for 16 weeks, study week 16
  Lower relative weight gain compared to the vehicle treated HFD mice: 20%
[3]
  Subcutaneous fat level (MRI) compared to the HFD group: significant decrease
  Visceral and subcutaneous fat relative to the LFD mice: reversed the visceral and subcutaneous fat of the HFD mice to the levels observed in the LFD mice
  Visceral fat level (MRI) compared to the HFD group: significant decrease
[4]
  Weights of epididymal fat deposits at the study end, group comparison: significantly lower than those in the HFD and HFD+vitD groups
  Epididymal fat, absolute organ weight: 1312 mg
  Epididymal fat, normalized organ weight (organ weight/body weight): 36.29 mg/g
  Liver, absolute organ weight: 1412 mg
  Liver, normalized organ weight (organ weight/body weight): 39.45 mg/g
[5]
  Glucose tolerance of the HFD-fed mice (glucose AUC analysis): statistically significant improvement
[6]
  Increased insulin resistance observed in the HFD (insulin tolerance test): reverses the increased insulin resistance observed in the HFD in a statistically significant manner
[7]; [26]
  Effect on cholesterol (the combined HDL and LDL): statistically significant cholesterol (the combined HDL and LDL) lowering effect
  Effect on triglyceride levels: lowered the triglyceride levels similar to the ones in the LFD group
[7]
  HDL in serum: 2.99 mmol/L
  LDL in serum: 0.73 mmol/L
  Total cholesterol in serum: 3.88 mmol/L
  Triglycerides in serum: 0.87 mmol/L
[8]
  Oral dose above which hypercalcemia may ensue: higher than 300 μg per day
[9]
  NF-κB inhibition: inhibits NF-κB by blocking the nuclear translocation of the p65 subunit

## C=C1CC[C@H](O)C/C1=C/C=C1\CCC[C@]2(C)[C@@H]([C@H](C)CCCC(C)C)CC[C@@H]12 [Vitamin D3, cholecalciferol, reference compound]
[1]; [10]
  Weight loss observed: No weight loss was observed
[1]; [11]
  Mean body weight: 23.80 g
[1]; [12]
  Weight change %: −0.84%
  Mean body weight: 23.60 g
[1]; [13]
  Weight change %: +0.84%
  Mean body weight: 24.00 g
[1]; [14]
  Weight change %: 0%
  Mean body weight: 23.80 g
[1]; [15]
  Weight change %: +0.84%
  Mean body weight: 24.00 g
[1]; [16]
  Weight change %: +1.68%
  Mean body weight: 24.20 g
[1]; [17]
  Weight change %: +2.52%
  Mean body weight: 24.40 g
[1]; [18]
  Mean body weight: 23.70 g
[1]; [19]
  Mean body weight: 23.50 g
[1]; [20]
  Mean body weight: 23.50 g
[1]; [21]
  Mean body weight: 23.40 g
[1]; [22]
  Weight change %: +2.94%
[1]; [23]
  Mean body weight: 24.50 g
[1]; [24]
  Weight change %: +3.78%
[1]; [25]
  Mean body weight: 24.70 g

## C=C1/C(=C\C=C2/CCC[C@]3(C)[C@@H]([C@H](C)CCCC(C)(C)O)CC[C@@H]23)C[C@@H](O)C[C@@H]1O [1,25 (OH)2D3, 1,25-dihydroxycholecalciferol, reference compound]
[3]
  Subcutaneous fat level (MRI) compared to the HFD group: no statistically significant effect
  Visceral fat level (MRI) compared to the HFD group: no statistically significant effect
[4]
  Epididymal fat, absolute organ weight: 1874 mg
  Epididymal fat, normalized organ weight (organ weight/body weight): 49.67 mg/g
  Liver, absolute organ weight: 1374 mg
  Liver, normalized organ weight (organ weight/body weight): 36.03 mg/g
[7]; [26]
  Effect on triglyceride levels: lowered the triglyceride levels similar to the ones in the LFD group
[7]
  HDL in serum: 3.57 mmol/L
  LDL in serum: 0.82 mmol/L
  Total cholesterol in serum: 4.44 mmol/L
  Triglycerides in serum: 0.68 mmol/L
